Measurements published in ChEMBL document CHEMBL3612026, “Biological activity of N(4)-boronated derivatives of 2'-deoxycytidine, potential agents for boron-neutron capture therapy” (Bioorg Med Chem, 2015).
Calls of active or inactive are those of the source. The rule behind the calls is not given here.

What was measured:
SCC-15 [1] = experiment: Binding affinity to DNA in human SCC-15 cells at 1 mM after 5 days by laser desorption/ionization mass spectrometric analysis; assay type: cell-based
[2] = Cytotoxicity against human SCC15 cells after 48 hrs by XTT assay; assay type: functional, cell-based; conditions: SCC-15, 48 h
SCC-15 [3] = experiment: Induction of apoptosis in human SCC15 cells assessed as induction of […] fragmentation at 20 to 40 mM after 48 hrs by DAPI staining-based laser scanning confocal microscopic analysis; assay type: functional, cell-based
BJ [4] = experiment: Induction of apoptosis in human BJ cells assessed as induction of […] fragmentation at 5 to 40 mM after 48 hrs by DAPI staining-based fluorescence assay; assay type: cell-based; conditions: 40000 µM
BJ [5] = experiment: Cytotoxicity against human BJ cells after 48 hrs by XTT assay; assay type: cell-based
[6] = Cytotoxicity against human SCC15 cells after 48 hrs by neutral red assay; assay type: functional, cell-based; conditions: SCC-15, 48 h
BJ [7] = experiment: Cytotoxicity against human BJ cells after 48 hrs by neutral red assay; assay type: cell-based
BJ [8] = experiment: Induction of apoptosis in human BJ cells assessed as induction of […] fragmentation at 20 to 40 mM after 48 hrs by DAPI staining-based laser scanning confocal microscopic analysis; assay type: cell-based; conditions: 40000 µM
SCC-15 [9] = experiment: Induction of apoptosis in human SCC15 cells assessed as induction of […] fragmentation at 20 to 40 mM after 48 hrs by DAPI staining-based fluorescence assay; assay type: functional, cell-based

Which results are given for `CC1(C)OB(CNc2ccn([C@H]3C[C@@H](O)[C@@H](CO)O3)c(=O)n2)OC1(C)C`?
Activity (SCC-15 [1]): Active; IC50 [2]: 18.8 mM; Activity (SCC-15 [3]): Active; Activity (BJ [4]): Non-toxic; IC50 (BJ [5]): 45.1 mM; IC50 [6]: 16.4 mM; IC50 (BJ [7]): 49.5 mM; Activity (BJ [8]): Non-toxic; Activity (SCC-15 [9]): Active
